We go through one sequence from patent US7723473B2, “Peptide antagonists of TGF-beta family members and therapeutic uses thereof” (St. Louis University, priority 1997, dated 2010).

In one test the test system is burn wounds. The experiment in a line: Pig burn wound model. Conditions: for re-epithelialization / healing rate versus vehicle: after post-burn day 10; for scarring versus vehicle-only control wounds: post-burn day 35 (and 41). In kind it is in vivo. The procedure:
Preparation of IntraSite® gel containing TGF-β peptantagonist (peptide TGF-beta antagonist). 1 ml of sterile 6 mM peptide β1^25 (41-65) in phosphate buffered saline or 1 ml of sterile phosphate buffered saline was vigorously mixed with 3 ml of IntraSite® gel using two 10 ml syringes connected with a three-way connector. […] However, 1.5 mM of peptide β1^25 (41-65) was used throughout the experiments described below.
Burn wound model. Four pigs weighing 20-25 kg were anesthetized by intramuscular injection of ketamine (5 mg/kg), strenil® (cazaporonum) (20 mg/kg) and atropine (5 mg/kg). Six uniform burn wounds (110° C., 30 sec) were then made symmetrically on the back of each pig using a modified soldering iron (Ref. 15) with a flat contact area of 20 cm^2. […] After wounding, a thin layer of Intrasite®) gel containing either peptide β1^25 (41-65), buffer or nothing else was applied to the wounds. All wounds were dressed with paraffin gauze. The dressing was changed every two days for the first 10 days and twice a week for the next 30 days. Gel comprising peptide β1^25 (41-65) and control gel were applied and wound measurements were made at each dressing change.
Assessment of wound healing. Wound healing was assessed by evaluating the rates of wound re-epithelization and contraction. The open wound area and the area enclosed by the normal hair bearing skin were measured using the macrophotography technique (Ref. 14). The healing rate was monitored every two days for the first 10 days and twice a week for 30 more days. Wound reepithelialization as a percent of the original wound size was calculated using the following formula:
[formula] where E=rate of re-epithelialization in percent; An=area enclosed by the normal hair bearing skin on a given post-burn day; Ao=area of open wound on the same day as was measured. Wound contraction was calculated using the following formula:
[formula] where C=rate of wound contraction in percent; Al=wound area as measured immediately following the burn or excision injury; An=area enclosed by normal hair bearing skin.
Measurement of scar. The volumes of scar tissue were estimated by multiplying their thickness by the size of the scar on post-burn day 41 in pigs and post-excision day 10 in rabbits.

In another test the target is T1, α2-macroglobulin (Homo sapiens, UniProt P01023).
T1 sequence (P01023 24-1474): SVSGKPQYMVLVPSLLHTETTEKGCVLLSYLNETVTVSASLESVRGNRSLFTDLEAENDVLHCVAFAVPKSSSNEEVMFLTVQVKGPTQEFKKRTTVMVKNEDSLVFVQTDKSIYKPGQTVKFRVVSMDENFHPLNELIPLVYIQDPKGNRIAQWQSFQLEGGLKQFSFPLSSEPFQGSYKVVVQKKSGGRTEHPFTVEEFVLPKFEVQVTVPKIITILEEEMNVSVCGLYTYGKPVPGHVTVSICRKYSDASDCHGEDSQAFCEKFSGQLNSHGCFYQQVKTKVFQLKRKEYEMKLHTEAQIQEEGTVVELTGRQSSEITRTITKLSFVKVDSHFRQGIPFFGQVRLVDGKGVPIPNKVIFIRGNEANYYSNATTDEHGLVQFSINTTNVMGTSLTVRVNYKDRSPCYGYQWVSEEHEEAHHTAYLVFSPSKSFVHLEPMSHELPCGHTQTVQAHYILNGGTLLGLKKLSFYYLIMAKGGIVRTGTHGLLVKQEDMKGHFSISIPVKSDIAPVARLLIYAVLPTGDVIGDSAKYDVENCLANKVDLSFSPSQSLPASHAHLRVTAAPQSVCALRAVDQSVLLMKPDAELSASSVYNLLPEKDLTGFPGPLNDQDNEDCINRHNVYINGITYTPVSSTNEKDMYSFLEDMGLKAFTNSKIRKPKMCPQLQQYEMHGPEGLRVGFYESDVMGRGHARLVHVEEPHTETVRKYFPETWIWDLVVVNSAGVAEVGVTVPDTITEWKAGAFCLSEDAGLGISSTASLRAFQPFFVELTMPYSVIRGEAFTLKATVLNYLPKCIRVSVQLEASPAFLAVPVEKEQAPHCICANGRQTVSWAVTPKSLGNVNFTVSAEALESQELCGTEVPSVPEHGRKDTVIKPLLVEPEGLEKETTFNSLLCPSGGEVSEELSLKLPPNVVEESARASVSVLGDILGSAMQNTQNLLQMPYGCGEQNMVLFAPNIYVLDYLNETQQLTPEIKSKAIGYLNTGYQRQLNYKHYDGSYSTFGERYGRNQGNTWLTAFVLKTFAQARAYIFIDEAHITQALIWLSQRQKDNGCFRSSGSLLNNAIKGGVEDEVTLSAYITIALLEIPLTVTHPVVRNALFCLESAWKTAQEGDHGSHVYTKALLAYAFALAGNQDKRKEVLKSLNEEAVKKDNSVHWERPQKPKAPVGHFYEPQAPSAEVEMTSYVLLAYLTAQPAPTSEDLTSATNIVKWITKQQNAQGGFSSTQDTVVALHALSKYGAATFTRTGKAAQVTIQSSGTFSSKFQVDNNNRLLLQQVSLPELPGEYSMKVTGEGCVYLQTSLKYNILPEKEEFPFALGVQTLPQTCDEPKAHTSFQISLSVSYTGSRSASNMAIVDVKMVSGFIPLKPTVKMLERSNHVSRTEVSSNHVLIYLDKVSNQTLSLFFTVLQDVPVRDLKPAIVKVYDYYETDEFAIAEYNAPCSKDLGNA
Conditions: Ref. 22; cited from earlier work.

[1] abbreviates: 1.5 mM in gel, topical, listed as TGF-β peptantagonist.

As for “ANFCLGPCPYIWSLDTQYSKVLALY [peptide β1^25 (41-65)]”, the “wound contraction versus vehicle only” value with burn wounds (1.5 mM in gel, topical) is “less contraction”; with burn wounds (setting [1]), “contracted significantly”. Further, the “re-epithelialization / healing rate versus vehicle” value was “rapid re-epithelialization” in the test on burn wounds (1.5 mM in gel, topical) and “healed faster” in the test on burn wounds (setting [1]). In the test on burn wounds (1.5 mM in gel, topical, n=4), this sequence had a re-epithelialization complete of 26±2 post-burn day. For the same sequence, the “accelerating wound healing and reducing scarring” value in the test with burn wounds (0.75 and 1.5 mM peptide in gel, topical) is listed as “effective”. Besides, the open wound entry in the test on burn wounds (post-burn day 23) and with burn wounds (post-burn day 34) was “very little open wound” throughout. In addition, the wound contraction with burn wounds (post-burn day 33, 1.5 mM in gel, n=4) was 50±4%. Also, the “scarring versus vehicle-only control wounds” value is listed as “less scarring” in the test with burn wounds and “less scar formation” in the test with burn wounds (listed as TGF-β peptantagonist). The “volume of scar tissue” value with burn wounds (post-burn day 41) came out at 0.07±0.02 cm^3. Also, the “complex formation between α2-macroglobulin and growth factors, cytokines and hormones” value at α2-macroglobulin is recorded as “block complex formation”.
